# According to patent publication US20180325115A1, “PLANT GROWTH REGULATOR COMPOSTION HAVING SYNERGISTIC EFFECT” (JIANGSU HUIFENG BIO AGRICULTURE CO., LTD., priority 2015, published 2018):
# How the values were obtained:
# Format in all cases: in vivo
# sorghum = test: Comprehensive test on growth regulation for sorghum by thidiazuron combined with brassinolide (plant height, stem diameter, 1000-grain weight, yield); details: mixtures 4.3 mg/kg, thidiazuron 4 mg/kg
# Method: (§1) 1. Comprehensive Test on Growth Regulation for Sorghum by Thidiazuron Combined with Brassinolide
# (§2) The thidiazuron and brassinolide were diluted with acetone to give a series of concentrations, and the stems and leaves of crops were sprayed to determine the effect of each concentration on crop growth in the field, so as to make a comprehensive evaluation with respect to the plant height and diameter, the root length, the disease resistance, the quality of fruits, and the yield.
# Plant height control rate=(Plant height in water control group-Plant height in treatment group)/Plant height in water control group*100%
# Stem diameter increase rate=(Stem diameter in water control group-Stem diameter in treatment group)/Stem diameter in water control group*100%
# Increase rate in 1000-grain weight=(1000-grain weight in water control group−1000-grain weight in treatment group)/1000-grain weight in water control group*100%
# Increase rate in yield per mu=(Yield per mu in water control group−Yield per mu in treatment group)/Yield per mu in water control group*100%
# leaf blight of sorghum = test: Disease index and prevention effect on leaf blight in the sorghum comprehensive test; details: early tasselling stage, mixtures 4.3 mg/kg, thidiazuron 4 mg/kg, brassinolide 0.3 mg/kg
# Method: as §1, §2
# Prevention effect=(Disease index in water control group-Disease index in treatment group)/Disease index in water control group*100%
# oat = test: Comprehensive field test on growth regulation and yield increase for oat by thidiazuron combined with brassinolide; details: Examples 5.4 mg/kg, thidiazuron 5.0 mg/kg, brassinolide 0.4 mg/kg
# Text: (§3) 1. Comprehensive Test on Growth Regulation, Disease Resistance, and Yield Increase for Oat by Thidiazuron Combined with Brassinolide in Field
# (§4) Application time: filling stage of oat, because diseases such as powdery mildew easily take place during the earing period.
# (§5) Time of application: 1. Formulation examples of the present invention were sprayed, and the results were an average of three replicates.
# powdery mildew of oat = test: Disease index and prevention effect on powdery mildew in the oat field test; details: Examples 5.4 mg/kg, thidiazuron 5.0 mg/kg, brassinolide 0.4 mg/kg
# Text: as §3, §4, §5
# [1] = early tasselling stage, vs water control, brassinolide 0.3 mg/kg
# [2] = maturity and harvest period, brassinolide 0.3 mg/kg
# [3] = maturity and harvest period, vs water control, brassinolide 0.3 mg/kg
structure (smiles),measurement,setting,value
"O=C(Nc1ccccc1)Nc1cnns1 [Thidiazuron, thidiazuron]",Plant height,"sorghum; early tasselling stage, 2 sprays on stems and leaves, 8 days apart, brassinolide 0.3 mg/kg (active ingredient)",120.4 cm
same,Stem diameter,"sorghum; early tasselling stage, brassinolide 0.3 mg/kg",2.56 cm
same,Control rate (plant height),sorghum; [1],3.4%
same,Increase rate (stem diameter),sorghum; [1],2.4%
same,Weight of 1000 grains,sorghum; [2],22.1
same,Yield,sorghum; [2],555.8 kg/667M^2
same,Increase rate (weight of 1000 grains),sorghum; [3],3.6%
same,Increase rate (yield per mu),sorghum; [3],3.5%
same,Disease index of leaf blight,leaf blight of sorghum,10.4
same,Prevention effect (leaf blight),leaf blight of sorghum; vs water control,24.1%
same,Plant height,"oat; 1 spray at filling stage, average of three replicates",120.1 cm
same,Stem diameter,oat,2.38 mm
same,Weight of 1000 grains,oat,35.73
same,Yield,oat,627.3 667M2
same,Control rate (plant height),oat; vs water control,4.5%
same,Increase rate (stem diameter),oat; vs water control,3.2%
same,Increase rate (weight of 1000 grains),oat; vs water control,4.2%
same,Increase rate (yield),oat; vs water control,4.3%
same,Disease index of powdery mildew,powdery mildew of oat,13.16
same,Prevention effect (powdery mildew),powdery mildew of oat; vs water control,13.3%
